Data: patent US10226448B2, “3-(1H-pyrrolo[3,2-C]pyridin-2-yl)-1H-pyrazolo[3,4-B]pyridines and therapeutic uses thereof” (Samumed, LLC, priority 2015, dated 2019)

Legend:
Assay type in all cases: cell-based
[1] = test system: primary human mesenchymal stem cells (hMSCs); test: Induction of chondrogenesis in primary human mesenchymal stem cells (chondrogenic nodules, Rhodamine B / Nile Red); details: 6 days; for Emax: relative to TGF-β3 (10 ng/mL) positive control, read-out: Max. Activity as % TGF-β3 activity; for EC50: concentration required to induce 50% levels of chondrogenesis vs TGF-β3, read-out: Conc (nM) of 50% TGF-β3 activity
Excerpt: Representative compounds were screened using primary human mesenchymal stem cells (hMSCs) to determine their ability to induce chondrogenesis (process by which cartilage is developed).
Human Mesenchymal Stem Cell Culture: Primary human mesenchymal stem cells (hMSCs) were purchased from Lonza (Walkersville, Md.) and expanded in Mesenchymal Stem Cell Growth Media (Lonza). Cells between passage 3 and 6 were used for the experiments.
To image chondrogenic nodules, the cells were fixed using 4% formaldehyde (Electron Microscopy Sciences), and stained with 2 μg/mL Rhodamine B (Sigma-Aldrich) and 20 μM Nile Red (Sigma-Aldrich) [Johnson K., et. al, A Stem Cell-Based Approach to Cartilage Repair, Science, (2012). […] Number of nodules in each well was normalized to the average of 3 DMSO treated wells on the same plate using Excel (Microsoft Inc.). The normalized averages (fold change over DMSO) of 3 replicate wells for each compound concentration were calculated. Due to solubility limitations of some of the compounds, curve fitting was incomplete leading to inaccurate EC50 determinations.
Using TGF-β3 as a positive control, the concentration of representative compounds required to induce 50% levels of chondrogenesis is reported. In addition, the maximum activity of each compound and the respective dose that each compound reached maximum chondrogenesis activity is reported.

[2] = test system: Wnt activity (Sp5-Luc reporter, TCF/LEF binding sites) in SW480 colon carcinoma cells; test: Wnt activity screening assay: Sp5-Luc reporter gene assay in SW480 cells; details: Homo sapiens; for EC50: Sp5-Luc reporter, SW480 cells, overnight incubation
Excerpt: The screening assay for Wnt activity is described as follows. Reporter cell lines can be generated by stably transducing cancer cell lines (e.g., colon cancer) or primary cells (e.g., IEC-6 intestinal cells) with a lentiviral construct that includes a Wnt-responsive promoter driving expression of the firefly luciferase gene.
SW480 colon carcinoma cells were transduced with a lentiviral vector expressing luciferase with a human Sp5 promoter consisting of a sequence of eight TCF/LEF binding sites. SW480 cells stably expressing the Sp5-Luc reporter gene and a hygromycin resistance gene were selected by treatment with 150 μg/mL of hygromycin for 7 days. These stably transduced SW480 cells were expanded in cell culture and used for all further screening activities. […] For Sp5-Luc reporter gene assays, the cells were plated at 4,000 cells/well in 384-well plates with medium containing 1% fetal bovine serum and incubated overnight at 37° C. and 5% CO2. Following incubation, 20 μl of BrightGlo luminescence reagent (Promega) was added to each well of the 384-well assay plates. The plates were placed on an orbital shaker for 2 min and then luminescence was quantified using the Envision (Perkin Elmer) plate reader. Readings were normalized to DMSO only treated cells, and normalized activities were utilized for EC50 calculations using the dose-response log (inhibitor) vs. response variable slope (four parameters) nonlinear regression feature available in GraphPad Prism 5.0 (or Dotmatics).

SW480 colon cancer cells = test: Cell viability assay (CellTiter-Blue) in SW480 colon cancer cells; details: Homo sapiens, 96 h; SW480 cell viability, four days, CellTiter-Blue
Experimental: Representative compounds were screened using the following assay procedure to assess the effect on cell viability as described below.
Approximately 2×10^3 SW480 colon cancer cells were seeded into each well and allowed to incubate in the presence or absence of compound for four days at 37° C./5% CO2. Eight replicates of DMSO-treated cells served as controls and cells treated with compound were performed in duplicate.
After incubation, 20 μL of CellTiter-Blue (Promega) was added to each well allowed to incubate for approximately 3 hours. This reagent was a buffered solution which contains resazurin, metabolically active cells were able to reduce rezarurin (blue) into resorufin (pink) which was highly fluorescent. This measured fluorescence was used as a readout for cell viability.

[3] = test system: LL29 cells (primary human fibroblasts derived from IPF patients), α-smooth muscle actin; test: Inhibition of the fibrotic process: αSMA staining in TGF-β1 treated primary human fibroblasts from IPF patients (LL29 cells); details: Fibroblast; for EC50: 96 h, LL29 cells, TGF-β1 20 ng/mL, 4 days, % αSMA positive cells
Experimental: Representative compounds were screened using primary human fibroblasts (derived from IPF patients) treated with TGF-β1 to determine their ability to inhibit the fibrotic process.
LL29 cells are plated at 1,500 cells/well in 80 μL/well F12 medium supplemented with 1% Fetal Bovine Serum. […] Wells treated with TGF-β1 and containing DMSO were used as controls. […] Following incubation for 4 days, SYTOX green nucleic acid stain (Life Technologies [Thermo Fisher Scientific]) was added to the wells at a final concentration of 1 μM and incubated at room temperature for 30 min.

IL-6 in THP-1 cells = test: IL-6 inhibition in LPS-stimulated THP-1 human monocyte cells (HTRF); details: for EC50: IL-6 inhibition, LPS-stimulated THP-1 cells, HTRF, 10-point dose-response starting from 10 μM; for inhibition at 10 µM: THP-1, read-out: percentage in parentheses beside EC50 >10
Experimental: Compound Screening: THP-1 cells were cultured in basal media with 1% FBS for 24 hours before the start of the assay. […] THP-1 cells were plated at 5000 cells/well in the 384-well plates and incubated at 37° C. for 2 h. 500 ng/mL of LPS was added after 2 hours and cells were incubated for another 22 hours at 37° C. Plates were spun in a centrifuge for 1 minute at […] and a mixture of anti-IL6 XL665, and anti-IL6 Cryptate diluted in reconstitution buffer (Cisbio Inc.) was added to each well. Following incubation for 3 hrs at room temperature, Homogeneous Time-Resolved Fluorescence (HTRF) was measured using the Envision (Perkin Elmer) at 665 nm and […]. The ratio of fluorescence at 665 nm to 620 nm was used as a readout for IL6 quantification. All samples were processed in duplicate. Readings were normalized to DMSO treated cells and normalized activities were utilized for EC50 calculations using the dose-response log (inhibitor) vs. response variable slope (four parameters) nonlinear regression feature available in GraphPad Prism 5.0 (or Dotmatics).

| EC50 [2] [µM] | EC50 (SW480 colon cancer cells) [µM] | EC50 (IL-6 in THP-1 cells) [µM] | EC50 [1] [nM] | SMILES | Emax [1] [%] | EC50 [3] [µM] | inhibition at 10 µM ([2]; SW480, read-out: percent inhibition at 10 μM) [%] | inhibition at 10 µM (IL-6 in THP-1 cells) [%] | inhibition at 10 µM ([3]; read-out: percent inhibition at 10 μM) [%] |
| --- | --- | --- | --- | --- | --- | --- | --- | --- | --- |
| 0.575 | 0.77 | 0.206 | – | CC(C)C(=O)Nc1cncc(-c2cnc3[nH]nc(-c4cc5c(-c6cccc(F)c6)nccc5[nH]4)c3c2)c1 [Compound 9, N-(5-(3-(4-(3-Fluorophenyl)-1H-pyrrolo[3,2-c]pyridin-2-yl)-1H-pyrazolo[3,4-b]pyridin-5-yl)pyridin-3-yl)isobutyramide] | 29 | 0.622 | – | – | – |
| 3.26 | 0.773 | 6.42 | 10 | CN(C)Cc1cncc(-c2cnc3[nH]nc(-c4cc5c(-c6cccc(F)c6)nccc5[nH]4)c3c2)c1 [Compound 13, 1-(5-(3-(4-(3-Fluorophenyl)-1H-pyrrolo[3,2-c]pyridin-2-yl)-1H-pyrazolo[3,4-b]pyridin-5-yl)pyridin-3-yl)-N,N-dimethylmethanamine] | 110 | 2.44 | – | – | – |
| 0.996 | 0.523 | 1.55 | – | CC(C)CC(=O)Nc1cncc(-c2cnc3[nH]nc(-c4cc5c(-c6ccc(F)cc6)nccc5[nH]4)c3c2)c1 [Compound 30, N-(5-(3-(4-(4-Fluorophenyl)-1H-pyrrolo[3,2-c]pyridin-2-yl)-1H-pyrazolo[3,4-b]pyridin-5-yl)pyridin-3-yl)-3-methylbutanamide] | 107 | 0.261 | – | – | – |
| 0.98 | 0.553 | 3.23 | – | CC(C)(C)C(=O)Nc1cncc(-c2cnc3[nH]nc(-c4cc5c(-c6ccc(F)cc6)nccc5[nH]4)c3c2)c1 [Compound 36, N-(5-(3-(4-(4-Fluorophenyl)-1H-pyrrolo[3,2-c]pyridin-2-yl)-1H-pyrazolo[3,4-b]pyridin-5-yl)pyridin-3-yl)pivalamide] | 44 | 0.579 | – | – | – |
| 0.435 | 0.959 | 0.235 | 10 | CC(C)Nc1cncc(-c2cnc3[nH]nc(-c4cc5c(-c6ccccc6F)nccc5[nH]4)c3c2)c1 [Compound 68, 5-(3-(4-(2-Fluorophenyl)-1H-pyrrolo[3,2-c]pyridin-2-yl)-1H-pyrazolo[3,4-b]pyridin-5-yl)-N-isopropylpyridin-3-amine] | 76 | 1.89 | – | – | – |

Second part, the compound before the results:

| SMILES | EC50 [2] [µM] | EC50 (SW480 colon cancer cells) [µM] | EC50 (IL-6 in THP-1 cells) [µM] | EC50 [1] [nM] | Emax [1] [%] | EC50 [3] [µM] | inhibition at 10 µM ([2]; SW480, read-out: percent inhibition at 10 μM) [%] | inhibition at 10 µM (IL-6 in THP-1 cells) [%] | inhibition at 10 µM ([3]; read-out: percent inhibition at 10 μM) [%] |
| --- | --- | --- | --- | --- | --- | --- | --- | --- | --- |
| Fc1ccc(-c2nccc3[nH]c(-c4n[nH]c5ncc(-c6cncc(CN7CCCC7)c6)cc45)cc23)cc1 [Compound 42, 3-(4-(4-Fluorophenyl)-1H-pyrrolo[3,2-c]pyridin-2-yl)-5-(5-(pyrrolidin-1-ylmethyl)pyridin-3-yl)-1H-pyrazolo[3,4-b]pyridine] | 1.57 | 0.535 | 3.99 | 10 | 105 | 0.72 | – | – | – |
| CCCCC(=O)Nc1cncc(-c2cnc3[nH]nc(-c4cc5c(-c6ccc(F)cc6)nccc5[nH]4)c3c2)c1 [Compound 47, N-(5-(3-(4-(4-Fluorophenyl)-1H-pyrrolo[3,2-c]pyridin-2-yl)-1H-pyrazolo[3,4-b]pyridin-5-yl)pyridin-3-yl)pentanamide] | > 10 | 0.839 | > 10 | 30 | 85 | 0.073 | 46.9 | 24.7 | – |
| O=C(Nc1cncc(-c2cnc3[nH]nc(-c4cc5c(-c6ccc(F)cc6)nccc5[nH]4)c3c2)c1)C1CCC1 [Compound 49, N-(5-(3-(4-(4-Fluorophenyl)-1H-pyrrolo[3,2-c]pyridin-2-yl)-1H-pyrazolo[3,4-b]pyridin-5-yl)pyridin-3-yl)cyclobutanecarboxamide] | 1.17 | 0.595 | 1.48 | 10 | 208 | 0.36 | – | – | – |
| Fc1ccc(-c2nccc3[nH]c(-c4n[nH]c5ncc(-c6cncc(CNCc7ccccc7)c6)cc45)cc23)cc1 [Compound 52, N-Benzyl-1-(5-(3-(4-(4-fluorophenyl)-1H-pyrrolo[3,2-c]pyridin-2-yl)-1H-pyrazolo[3,4-b]pyridin-5-yl)pyridin-3-yl)methanamine] | 0.854 | 0.346 | 1.26 | 900 | 179 | 0.458 | – | – | – |
| Nc1cncc(-c2cnc3[nH]nc(-c4cc5c(-c6ccccc6F)nccc5[nH]4)c3c2)c1 [Compound 59, 5-(3-(4-(2-Fluorophenyl)-1H-pyrrolo[3,2-c]pyridin-2-yl)-1H-pyrazolo[3,4-b]pyridin-5-yl)pyridin-3-amine] | 0.197 | 0.762 | 0.198 | 30 | 86 | 2.28 | – | – | – |
| CCNCc1cncc(-c2cnc3[nH]nc(-c4cc5c(-c6ccccc6F)nccc5[nH]4)c3c2)c1 [Compound 62, N-((5-(3-(4-(2-Fluorophenyl)-1H-pyrrolo[3,2-c]pyridin-2-yl)-1H-pyrazolo[3,4-b]pyridin-5-yl)pyridin-3-yl)methyl)ethanamine] | 1.08 | 0.923 | 1.89 | – | 52 | 2.37 | – | – | – |
| O=C(Nc1cncc(-c2cnc3[nH]nc(-c4cc5c(-c6ccccc6F)nccc5[nH]4)c3c2)c1)c1ccccc1 [Compound 67, N-(5-(3-(4-(2-Fluorophenyl)-1H-pyrrolo[3,2-c]pyridin-2-yl)-1H-pyrazolo[3,4-b]pyridin-5-yl)pyridin-3-yl)benzamide] | 1.98 | 1.62 | > 10 | 10 | 101 | > 10 | – | 41.4 | 6.3 |
| CCCC(=O)Nc1cncc(-c2cnc3[nH]nc(-c4cc5c(-c6ccccc6F)nccc5[nH]4)c3c2)c1 [Compound 73, N-(5-(3-(4-(2-Fluorophenyl)-1H-pyrrolo[3,2-c]pyridin-2-yl)-1H-pyrazolo[3,4-b]pyridin-5-yl)pyridin-3-yl)butyramide] | 0.472 | 0.348 | 0.036 | – | 53 | 2.66 | – | – | – |
